# Results: publication PMC9607164, “Rational Design, Synthesis and Biological Evaluation of Novel Pyrazoline-Based Antiproliferative Agents in MCF-7 Cancer Cells” (Pharmaceuticals, 2022)
# Read-outs that look alike come from different tables or passages of the source.
# Experiments:
# [1] = tested on: MCF-10A normal breast cells; assay: MTT cytotoxicity assay on MCF-10A; format: cell-based; conditions: Homo sapiens, 48 h, n = 3, read-out: IC50 ± SD, MCF-10A
# Description: (§1) Both breast cancer (MCF-7) and normal breast (MCF-10A) cells were purchased from National Research Institute, Egypt, and maintained in complete media of RPMI-1640 medium L-Glutamine (Lonza Verviers SPRL, Belgium, cat#12-604F). Cells were incubated following standard tissue culture work. Cell viability was measured 48 h later, utilizing MTT colorimetric assay (Promega, Madison, WI, USA). Absorbance was consequently assessed (at 570 nm) using an ELISA microplate reader (BIO-RAD, model iMark, Tokyo, Japan). Using GraphPad Prism 7, the IC50 values were determined, and the viability at each concentration was determined in comparison to the control.
# [2] = format: in vivo; conditions: 10 mg/kg BW, IP; MCF-7 control 32.28 g, normal 24.5 g
# Excerpt: In vivo experiments for lethal dose (LD50), experimental design, tumor mass, blood parameters, histopathological examinations were accomplished as previously described. After inoculating the tumor cells, masses of the solid tumor started to appear ten days later. […]. Animals from each group were sacrificed, and their blood was drawn to measure hemoglobin (Hb), red blood cell (RBC), white blood cell (WBC), and liver enzymes (ALT, AST, albumin, and total protein) levels.
# MCF-7 cancer cells = assay: MTT cytotoxicity assay on MCF-7; format: cell-based; conditions: MTT assay, 48 h, n = 3, NA: Non-Active, read-out: IC50 ± SD, MCF-7
# Description: as §1
# [3] = tested on: breast cancer cells MCF-7; conditions: cited from earlier work
# EGFR Kinase = biological target: T1, EGFR Kinase (Homo sapiens, UniProt P00533); assay: EGFR Kinase Assay Kit (BPS Bioscience); format: biochemical; conditions: mean ± SD of three replicates, five concentrations
# T1 construct: purchased BPS Bioscience 40321
# T1 sequence (P00533 25-1210): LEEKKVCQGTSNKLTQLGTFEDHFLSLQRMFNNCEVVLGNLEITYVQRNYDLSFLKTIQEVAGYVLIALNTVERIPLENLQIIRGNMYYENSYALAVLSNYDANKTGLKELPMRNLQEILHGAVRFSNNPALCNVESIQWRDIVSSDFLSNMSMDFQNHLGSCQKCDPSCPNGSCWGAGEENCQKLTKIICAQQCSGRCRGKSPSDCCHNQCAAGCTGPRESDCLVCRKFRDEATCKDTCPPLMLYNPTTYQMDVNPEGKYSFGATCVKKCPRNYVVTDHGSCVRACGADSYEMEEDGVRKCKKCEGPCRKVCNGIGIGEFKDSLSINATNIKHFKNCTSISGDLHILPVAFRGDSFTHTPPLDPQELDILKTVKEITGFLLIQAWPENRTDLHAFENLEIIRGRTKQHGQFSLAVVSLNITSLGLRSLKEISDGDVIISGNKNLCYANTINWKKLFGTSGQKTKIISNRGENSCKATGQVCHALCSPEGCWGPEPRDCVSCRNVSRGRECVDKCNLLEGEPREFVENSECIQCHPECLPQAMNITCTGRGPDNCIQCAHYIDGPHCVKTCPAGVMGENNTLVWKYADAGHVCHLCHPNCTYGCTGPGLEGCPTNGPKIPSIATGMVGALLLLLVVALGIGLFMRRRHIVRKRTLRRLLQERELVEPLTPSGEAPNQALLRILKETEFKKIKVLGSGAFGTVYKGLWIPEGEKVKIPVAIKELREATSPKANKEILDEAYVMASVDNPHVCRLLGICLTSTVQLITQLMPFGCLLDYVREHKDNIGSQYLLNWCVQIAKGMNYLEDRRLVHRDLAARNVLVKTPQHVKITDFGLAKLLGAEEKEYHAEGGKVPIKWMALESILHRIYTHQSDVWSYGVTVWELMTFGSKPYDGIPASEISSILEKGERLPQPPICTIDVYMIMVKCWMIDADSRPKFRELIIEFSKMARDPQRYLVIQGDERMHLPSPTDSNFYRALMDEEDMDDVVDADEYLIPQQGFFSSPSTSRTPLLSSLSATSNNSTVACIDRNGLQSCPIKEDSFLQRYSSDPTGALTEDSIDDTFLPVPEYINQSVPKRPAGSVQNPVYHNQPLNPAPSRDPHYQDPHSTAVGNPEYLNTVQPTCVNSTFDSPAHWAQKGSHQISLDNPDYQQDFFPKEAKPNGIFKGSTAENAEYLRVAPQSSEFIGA
# Description: (§2) Compounds’ autophosphorylation percentage inhibition was computed according to the following equation: […] , then IC50 values were calculated using GraphPad prism software.
# HER2 Kinase = biological target: T2, HER2 Kinase (Homo sapiens, UniProt P04626); assay: HER2 Kinase Assay Kit (BPS Bioscience); format: biochemical; conditions: mean ± SD of three replicates, five concentrations
# T2 construct: purchased BPS Bioscience 40721
# T2 sequence (P04626 23-1255): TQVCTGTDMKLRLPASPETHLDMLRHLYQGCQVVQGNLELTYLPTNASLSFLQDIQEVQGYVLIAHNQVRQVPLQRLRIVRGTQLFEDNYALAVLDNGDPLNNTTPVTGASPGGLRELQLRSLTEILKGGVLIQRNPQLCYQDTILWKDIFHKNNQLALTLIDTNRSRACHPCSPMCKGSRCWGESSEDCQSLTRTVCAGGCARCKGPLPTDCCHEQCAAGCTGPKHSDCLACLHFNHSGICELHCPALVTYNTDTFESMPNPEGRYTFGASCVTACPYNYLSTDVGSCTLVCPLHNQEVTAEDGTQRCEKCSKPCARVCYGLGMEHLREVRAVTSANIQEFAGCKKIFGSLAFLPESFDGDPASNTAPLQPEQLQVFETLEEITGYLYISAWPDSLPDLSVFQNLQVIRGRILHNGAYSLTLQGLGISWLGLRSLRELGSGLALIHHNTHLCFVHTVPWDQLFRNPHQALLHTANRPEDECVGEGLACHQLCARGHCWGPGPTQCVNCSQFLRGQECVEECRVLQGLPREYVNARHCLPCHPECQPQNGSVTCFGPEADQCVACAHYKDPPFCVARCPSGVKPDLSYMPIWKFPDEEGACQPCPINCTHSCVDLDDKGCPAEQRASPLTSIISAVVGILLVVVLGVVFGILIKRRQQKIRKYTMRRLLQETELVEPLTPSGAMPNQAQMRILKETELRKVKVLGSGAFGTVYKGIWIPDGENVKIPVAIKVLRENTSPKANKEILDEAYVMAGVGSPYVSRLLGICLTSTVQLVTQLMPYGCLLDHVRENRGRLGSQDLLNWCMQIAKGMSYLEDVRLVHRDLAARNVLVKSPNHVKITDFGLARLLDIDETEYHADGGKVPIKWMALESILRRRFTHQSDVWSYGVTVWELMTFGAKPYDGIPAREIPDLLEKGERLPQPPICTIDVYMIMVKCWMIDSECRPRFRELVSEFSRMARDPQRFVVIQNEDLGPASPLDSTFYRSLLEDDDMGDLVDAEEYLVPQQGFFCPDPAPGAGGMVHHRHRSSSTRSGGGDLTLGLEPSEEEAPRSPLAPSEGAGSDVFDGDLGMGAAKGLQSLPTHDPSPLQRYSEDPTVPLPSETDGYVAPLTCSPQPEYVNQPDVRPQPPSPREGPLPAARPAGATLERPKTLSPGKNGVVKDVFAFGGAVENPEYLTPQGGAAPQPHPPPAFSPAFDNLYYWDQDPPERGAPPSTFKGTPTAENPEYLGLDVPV
# Description: as §2
# [4] = reported pyrazoline-based agents
melting point [°C],SMILES,IC50 [1] [µM],"IC50 (MCF-7 cancer cells; Homo sapiens, MCF7, 48 h) [µM]",other results
195 to 198,"COc1ccc(C2=NN(c3nc(-c4ccc(Cl)cc4)cs3)C(c3ccccc3)C2)cc1OC (stereo not drawn) [Compound 6d, 4-(4-Chlorophenyl)-2-(3-(3,4-dimethoxyphenyl)-5-phenyl-4,5-dihydro-1H-pyrazol-1-yl)thiazole]",45.2 ± 1.24,–,–
–,"CS(=O)(=O)CCNCc1ccc(-c2ccc3ncnc(Nc4ccc(OCc5cccc(F)c5)c(Cl)c4)c3c2)o1 [Lapatinib, reference compound]",≥ 50,7.45,mice weight [2]: 27.35 g
215 to 218,"COc1ccc(C2=NN(c3nc(C)c(C(C)=O)s3)C(c3ccc(Cl)cc3)C2)cc1OC (stereo not drawn) [Compound 9c, 1-(2-(5-(4-Chlorophenyl)-3-(3,4-dimethoxyphenyl)-4,5-dihydro-1H-pyrazol-1-yl)-4-methylthiazol-5-yl)ethan-1-one]",≥ 50,–,–
188 to 190,"COc1ccc(C2=NN(C(N)=S)C(c3ccccc3)C2)cc1OC (stereo not drawn) [Compound 3a, 3-(3,4-Dimethoxyphenyl)-5-phenyl-4,5-dihydro-1H-pyrazole-1-carbothioamide]",36.5 ± 1.15,–,–
140 to 143,"COc1ccc(C2CC(c3ccc(OC)c(OC)c3)=NN2c2nc(-c3ccc(F)cc3)cs2)cc1 (stereo not drawn) [Compound 6g, 2-(3-(3,4-Dimethoxyphenyl)-5-(4-methoxyphenyl)-4,5-dihydro-1H-pyrazol-1-yl)-4-(4-fluorophenyl)thiazole]",24.5 ± 1.01,15.4 ± 0.79,–
–,COc1ccc2ccc(=O)oc2c1C1=NN(S(=O)(=O)c2ccc(C)cc2)C(c2ccccc2)C1 (stereo not drawn) [III],–,–,"IC50 [3, 4]: 34.1 µM"
215 to 218,"CCOC(=O)c1sc(N2N=C(c3ccc(OC)c(OC)c3)CC2c2ccccc2)nc1C (stereo not drawn) [Compound 9d, Ethyl 2-(3-(3,4-Dimethoxyphenyl)-5-phenyl-4,5-dihydro-1H-pyrazol-1-yl)-4-methylthiazole-5-carboxylate]",24.3 ± 1.39,–,–
149 to 151,"COc1ccc(C2CC(c3ccc(OC)c(OC)c3)=NN2c2nc(-c3ccc(Cl)cc3)cs2)cc1 (stereo not drawn) [Compound 6h, 4-(4-Chlorophenyl)-2-(3-(3,4-dimethoxyphenyl)-5-(4-methoxyphenyl)-4,5-dihydro-1H-pyrazol-1-yl)thiazole]",26.5 ± 1.59,35.2 ± 1.27,–
213 to 215,"COc1ccc(C2CC(c3ccc(OC)c(OC)c3)=NN2c2nc(C)c(C(C)=O)s2)cc1 (stereo not drawn) [Compound 9b, 1-(2-(3-(3,4-Dimethoxyphenyl)-5-(4-methoxyphenyl)-4,5-dihydro-1H-pyrazol-1-yl)-4-methylthiazol-5-yl)ethan-1-one]",26.3 ± 1.07,31.7 ± 1.96,–
195 to 197,"COc1ccc(C2=NN(c3nc(-c4ccc(Cl)cc4)cs3)C(c3ccc(Cl)cc3)C2)cc1OC (stereo not drawn) [Compound 6l, 4-(4-Chlorophenyl)-2-(5-(4-chlorophenyl)-3-(3,4-dimethoxyphenyl)-4,5-dihydro-1H-pyrazol-1-yl)thiazole]",35.7 ± 1.85,17.6 ± 0.97,–
–,CC(=O)N1N=C(c2ccc(OC3OC4OC5(C)CCC6C(C)CCC(C3C)C46OO5)cc2)CC1c1ccccc1 (stereo not drawn) [I],–,–,GI50 ([3]; reported pyrazoline-based agent): 130 nM
230 to 232,"COc1ccc(C2=NN(C(N)=S)C(c3ccc(Cl)cc3)C2)cc1OC (stereo not drawn) [Compound 3c, 5-(4-Chlorophenyl)-3-(3,4-dimethoxyphenyl)-4,5-dihydro-1H-pyrazole-1-carbothioamide]",≥ 50,11.1,IC50 (EGFR Kinase): 67 ± 9 nM; IC50 (MCF-7 cancer cells): 11.2 ± 0.54 µM; IC50 (HER2 Kinase): 70 ± 18 nM
135 to 140,"COc1ccc(C2=NN(c3nc(-c4ccc(F)cc4)cs3)C(c3ccccc3)C2)cc1OC (stereo not drawn) [Compound 6c, 2-(3-(3,4-Dimethoxyphenyl)-5-phenyl-4,5-dihydro-1H-pyrazol-1-yl)-4-(4-fluorophenyl)thiazole]",≥ 50,18.7 ± 0.84,–
208 to 210,"COc1ccc(C2=NN(c3nc(-c4ccccc4)cs3)C(c3ccc(Cl)cc3)C2)cc1OC (stereo not drawn) [Compound 6i, 2-(5-(4-Chlorophenyl)-3-(3,4-dimethoxyphenyl)-4,5-dihydro-1H-pyrazol-1-yl)-4-phenylthiazole]",15.8 ± 1.08,45.4 ± 1.87,–
–,O=C1CCC(=O)N1CC(=O)N1N=C(c2ccccc2)CC1c1ccccc1 (stereo not drawn) [II],–,–,"IC50 [3, 4]: 0.42 µM"
189 to 191,"COc1ccc(C2=NN(c3nc(-c4ccc(C)cc4)cs3)C(c3ccc(Cl)cc3)C2)cc1OC (stereo not drawn) [Compound 6j, 2-(5-(4-Chlorophenyl)-3-(3,4-dimethoxyphenyl)-4,5-dihydro-1H-pyrazol-1-yl)-4-(p-tolyl)thiazole]",≥ 50,–,–
202 to 205,"COc1ccc(C2=NN(c3nc(-c4ccccc4)cs3)C(c3ccccc3)C2)cc1OC (stereo not drawn) [Compound 6a, 2-(3-(3,4-Dimethoxyphenyl)-5-phenyl-4,5-dihydro-1H-pyrazol-1-yl)-4-phenylthiazole]",≥ 50,–,–
–,Cc1nc(Nc2ncc(C(=O)Nc3c(C)cccc3Cl)s2)cc(N2CCN(CCO)CC2)n1 [Dasatinib],–,–,"MCF-7 (measure not named) ([3]; Figure 2, reported agent): 17.03 µM"
235 to 238,"COc1ccc(C2=NN(c3nc(C)c(C(C)=O)s3)C(c3ccccc3)C2)cc1OC (stereo not drawn) [Compound 9a, 1-(2-(3-(3,4-Dimethoxyphenyl)-5-phenyl-4,5-dihydro-1H-pyrazol-1-yl)-4-methylthiazol-5-yl)ethan-1-one]",18.9 ± 1.09,34.2 ± 1.68,–
197 to 200,"CCOC(=O)c1sc(N2N=C(c3ccc(OC)c(OC)c3)CC2c2ccc(Cl)cc2)nc1C (stereo not drawn) [Compound 9f, Ethyl 2-(5-(4-Chlorophenyl)-3-(3,4-dimethoxyphenyl)-4,5-dihydro-1H-pyrazol-1-yl)-4-methylthiazole-5-carboxylate]",≥ 50,8.35 ± 0.29,IC50 (EGFR Kinase): 51 ± 3 nM; IC50 (HER2 Kinase): 140 ± 6 nM
169 to 171,"CCOC(=O)c1sc(N2N=C(c3ccc(OC)c(OC)c3)CC2c2ccc(OC)cc2)nc1C (stereo not drawn) [Compound 9e, Ethyl 2-(3-(3,4-Dimethoxyphenyl)-5-(4-methoxyphenyl)-4,5-dihydro-1H-pyrazol-1-yl)-4-methylthiazole-5-carboxylate]",43.6 ± 1.85,18.9 ± 1.03,–
–,O=C1c2ccccc2C(=O)N1CCc1csc(N(/N=C/c2cc(Cl)cc(Cl)c2)C(=O)CCl)n1 [V],–,–,IC50 ([3]; reported thiazole-based agent): 9.06 µM
210 to 215,"COc1ccc(C2=NN(c3nc(-c4ccc(C)cc4)cs3)C(c3ccccc3)C2)cc1OC (stereo not drawn) [Compound 6b, 2-(3-(3,4-Dimethoxyphenyl)-5-phenyl-4,5-dihydro-1H-pyrazol-1-yl)-4-(p-tolyl)thiazole]",≥ 50,13.4 ± 0.98,–
150 to 152,"COc1ccc(C2CC(c3ccc(OC)c(OC)c3)=NN2c2nc(-c3ccc(C)cc3)cs2)cc1 (stereo not drawn) [Compound 6f, 2-(3-(3,4-Dimethoxyphenyl)-5-(4-methoxyphenyl)-4,5-dihydro-1H-pyrazol-1-yl)-4-(p-tolyl)thiazole]",35.4 ± 1.84,11.1 ± 0.85,IC50 (EGFR Kinase): 230 ± 24 nM; IC50 (HER2 Kinase): 120 ± 25 nM
221 to 223,"COc1ccc(C2CC(c3ccc(OC)c(OC)c3)=NN2C(N)=S)cc1 (stereo not drawn) [Compound 3b, 3-(3,4-Dimethoxyphenyl)-5-(4-methoxyphenyl)-4,5-dihydro-1H-pyrazole-1-carbothioamide]",34.8 ± 1.35,23.6 ± 0.72,–
